Data from ChEMBL document CHEMBL1629583, “Establishment of in vitro susceptibility testing methodologies and comparative activities of piperacillin in combination with the penem {beta}-lactamase inhibitor BLI-489” (2009).
In brackets after ≈: the same amount, converted by molar mass.

Legend:
Type in all cases: functional
[1] = system: Staphylococcus epidermidis; test: Antimicrobial activity against methicillin-resistant Staphylococcus epidermidis clinical isolate after 18 to 22 hrs by broth microdilution method
[2] = system: Staphylococcus haemolyticus; test: Antimicrobial activity against Staphylococcus haemolyticus clinical isolate after 18 to 22 hrs by broth microdilution method
Staphylococcus aureus [3] = test: Antimicrobial activity against methicillin-susceptible Staphylococcus aureus clinical isolate after 18 to 22 hrs by broth microdilution method
Enterococcus faecium [4] = test: Antimicrobial activity against vancomycin-resistant Enterococcus faecium clinical isolate after 18 to 22 hrs by broth microdilution method
Enterococcus faecalis [5] = test: Antimicrobial activity against vancomycin-resistant Enterococcus faecalis clinical isolate after 18 to 22 hrs by broth microdilution method
Enterococcus faecalis [6] = test: Antimicrobial activity against Enterococcus faecalis clinical isolate after 18 to 22 hrs by broth microdilution method
Enterococcus hirae = test: Antimicrobial activity against Enterococcus hirae clinical isolate after 18 to 22 hrs by broth microdilution method
Enterococcus avium = test: Antimicrobial activity against Enterococcus avium clinical isolate after 18 to 22 hrs by broth microdilution method
Streptococcus agalactiae = test: Antimicrobial activity against Streptococcus agalactiae clinical isolate after 18 to 22 hrs by broth microdilution method
Streptococcus pyogenes = test: Antimicrobial activity against Streptococcus pyogenes clinical isolate after 18 to 22 hrs by broth microdilution method
Streptococcus pneumoniae [7] = test: Antimicrobial activity against penicillin-resistant Streptococcus pneumoniae clinical isolate after 18 to 22 hrs by broth microdilution method
Enterococcus durans = test: Antimicrobial activity against Enterococcus durans clinical isolate after 18 to 22 hrs by broth microdilution method
Enterococcus gallinarum = test: Antimicrobial activity against Enterococcus gallinarum clinical isolate after 18 to 22 hrs by broth microdilution method
Enterococcus faecium [8] = test: Antimicrobial activity against Enterococcus faecium clinical isolate after 18 to 22 hrs by broth microdilution method
Staphylococcus aureus [9] = test: Antimicrobial activity against methicillin-resistant Staphylococcus aureus clinical isolate after 18 to 22 hrs by broth microdilution method
[10] = system: Staphylococcus epidermidis; test: Antimicrobial activity against methicillin-susceptible Staphylococcus epidermidis clinical isolate after 18 to 22 hrs by broth microdilution method
Streptococcus pneumoniae [11] = test: Antimicrobial activity against penicillin-susceptible Streptococcus pneumoniae clinical isolate after 18 to 22 hrs by broth microdilution method
[12] = system: Enterococcus casseliflavus; test: Antimicrobial activity against Enterococcus casseliflavus clinical isolate after 18 to 22 hrs by broth microdilution method
Streptococcus pneumoniae [13] = test: Antimicrobial activity against penicillin-intermediate Streptococcus pneumoniae clinical isolate after 18 to 22 hrs by broth microdilution method

CN[C@H](CC(C)C)C(=O)N[C@H]1C(=O)N[C@@H](CC(N)=O)C(=O)N[C@H]2C(=O)N[C@H]3C(=O)N[C@H](C(=O)N[C@H](C(=O)O)c4cc(O)cc(O)c4-c4cc3ccc4O)[C@H](O)c3ccc(c(Cl)c3)Oc3cc2cc(c3O[C@@H]2O[C@H](CO)[C@@H](O)[C@H](O)[C@H]2O[C@H]2C[C@](C)(N)[C@H](O)[C@H](C)O2)Oc2ccc(cc2Cl)[C@H]1O [VANCOMYCIN]
MIC50 [1]: 2 µg/mL (≈ 1.38 µM) | MIC90 [1]: 2 µg/mL (≈ 1.38 µM) | MIC50 [2]: 1 µg/mL (≈ 0.69 µM) | MIC90 [2]: 1 µg/mL (≈ 0.69 µM) | MIC50 (Staphylococcus aureus [3]): 0.5 µg/mL (≈ 0.345 µM) | MIC90 (Staphylococcus aureus [3]): 1 µg/mL (≈ 0.69 µM) | MIC (Enterococcus faecium [4]): > 32 µg/mL | MIC50 (Enterococcus faecium [4]): > 32 µg/mL | MIC90 (Enterococcus faecium [4]): > 32 µg/mL | MIC50 (Enterococcus faecalis [5]): > 32 µg/mL | MIC90 (Enterococcus faecalis [5]): > 32 µg/mL | MIC50 (Enterococcus faecalis [6]): 1 µg/mL (≈ 0.69 µM) | MIC90 (Enterococcus faecalis [6]): 2 µg/mL (≈ 1.38 µM) | MIC50 (Enterococcus hirae): 0.5 µg/mL (≈ 0.345 µM) | MIC90 (Enterococcus hirae): 4 µg/mL (≈ 2.76 µM) | MIC (Enterococcus avium): 0.25 µg/mL (≈ 0.173 µM) | MIC50 (Enterococcus avium): 0.25 µg/mL (≈ 0.173 µM) | MIC90 (Enterococcus avium): 0.5 µg/mL (≈ 0.345 µM) | MIC (Streptococcus agalactiae): 0.25 µg/mL (≈ 0.173 µM) | MIC50 (Streptococcus agalactiae): 0.25 µg/mL (≈ 0.173 µM) | MIC90 (Streptococcus agalactiae): 0.5 µg/mL (≈ 0.345 µM) | MIC50 (Streptococcus pyogenes): 0.25 µg/mL (≈ 0.173 µM) | MIC90 (Streptococcus pyogenes): 0.25 µg/mL (≈ 0.173 µM) | MIC50 (Streptococcus pneumoniae [7]): 0.25 µg/mL (≈ 0.173 µM) | MIC90 (Streptococcus pneumoniae [7]): 0.25 µg/mL (≈ 0.173 µM) | MIC50 (Enterococcus durans): 0.5 µg/mL (≈ 0.345 µM) | MIC90 (Enterococcus durans): 4 µg/mL (≈ 2.76 µM) | MIC50 (Enterococcus gallinarum): 0.5 µg/mL (≈ 0.345 µM) | MIC90 (Enterococcus gallinarum): 4 µg/mL (≈ 2.76 µM) | MIC50 (Enterococcus faecium [8]): 0.5 µg/mL (≈ 0.345 µM) | MIC90 (Enterococcus faecium [8]): 1 µg/mL (≈ 0.69 µM) | MIC50 (Staphylococcus aureus [9]): 1 µg/mL (≈ 0.69 µM) | MIC90 (Staphylococcus aureus [9]): 1 µg/mL (≈ 0.69 µM) | MIC50 [10]: 1 µg/mL (≈ 0.69 µM) | MIC90 [10]: 1 µg/mL (≈ 0.69 µM) | MIC50 (Streptococcus pneumoniae [11]): 0.12 µg/mL (≈ 0.0828 µM) | MIC90 (Streptococcus pneumoniae [11]): 0.25 µg/mL (≈ 0.173 µM) | MIC50 [12]: 0.5 µg/mL (≈ 0.345 µM) | MIC90 [12]: 4 µg/mL (≈ 2.76 µM) | MIC50 (Streptococcus pneumoniae [13]): 0.25 µg/mL (≈ 0.173 µM) | MIC90 (Streptococcus pneumoniae [13]): 0.25 µg/mL (≈ 0.173 µM)

CC(=O)NC[C@H]1CN(c2ccc(N3CCOCC3)c(F)c2)C(=O)O1 [LINEZOLID]
MIC [1]: 1 µg/mL (≈ 2.96 µM) | MIC50 [1]: 1 µg/mL (≈ 2.96 µM) | MIC90 [1]: 2 µg/mL (≈ 5.93 µM) | MIC [2]: 1 µg/mL (≈ 2.96 µM) | MIC50 [2]: 1 µg/mL (≈ 2.96 µM) | MIC90 [2]: 2 µg/mL (≈ 5.93 µM) | MIC50 (Staphylococcus aureus [3]): 4 µg/mL (≈ 11.9 µM) | MIC90 (Staphylococcus aureus [3]): 4 µg/mL (≈ 11.9 µM) | MIC50 (Enterococcus faecium [4]): 2 µg/mL (≈ 5.93 µM) | MIC90 (Enterococcus faecium [4]): 2 µg/mL (≈ 5.93 µM) | MIC50 (Enterococcus faecalis [5]): 2 µg/mL (≈ 5.93 µM) | MIC90 (Enterococcus faecalis [5]): 2 µg/mL (≈ 5.93 µM) | MIC50 (Enterococcus faecalis [6]): 2 µg/mL (≈ 5.93 µM) | MIC90 (Enterococcus faecalis [6]): 2 µg/mL (≈ 5.93 µM) | MIC50 (Enterococcus hirae): 2 µg/mL (≈ 5.93 µM) | MIC90 (Enterococcus hirae): 2 µg/mL (≈ 5.93 µM) | MIC50 (Enterococcus avium): 2 µg/mL (≈ 5.93 µM) | MIC90 (Enterococcus avium): 2 µg/mL (≈ 5.93 µM) | MIC50 (Streptococcus agalactiae): 1 µg/mL (≈ 2.96 µM) | MIC90 (Streptococcus agalactiae): 2 µg/mL (≈ 5.93 µM) | MIC50 (Streptococcus pyogenes): 1 µg/mL (≈ 2.96 µM) | MIC90 (Streptococcus pyogenes): 1 µg/mL (≈ 2.96 µM) | MIC50 (Streptococcus pneumoniae [7]): 1 µg/mL (≈ 2.96 µM) | MIC90 (Streptococcus pneumoniae [7]): 1 µg/mL (≈ 2.96 µM) | MIC50 (Enterococcus durans): 2 µg/mL (≈ 5.93 µM) | MIC90 (Enterococcus durans): 2 µg/mL (≈ 5.93 µM) | MIC50 (Enterococcus gallinarum): 2 µg/mL (≈ 5.93 µM) | MIC90 (Enterococcus gallinarum): 2 µg/mL (≈ 5.93 µM) | MIC50 (Enterococcus faecium [8]): 2 µg/mL (≈ 5.93 µM) | MIC90 (Enterococcus faecium [8]): 2 µg/mL (≈ 5.93 µM) | MIC50 (Staphylococcus aureus [9]): 2 µg/mL (≈ 5.93 µM) | MIC90 (Staphylococcus aureus [9]): 4 µg/mL (≈ 11.9 µM) | MIC [10]: 1 µg/mL (≈ 2.96 µM) | MIC50 [10]: 1 µg/mL (≈ 2.96 µM) | MIC90 [10]: 2 µg/mL (≈ 5.93 µM) | MIC50 (Streptococcus pneumoniae [11]): 0.5 µg/mL (≈ 1.48 µM) | MIC90 (Streptococcus pneumoniae [11]): 1 µg/mL (≈ 2.96 µM) | MIC50 [12]: 2 µg/mL (≈ 5.93 µM) | MIC90 [12]: 2 µg/mL (≈ 5.93 µM) | MIC50 (Streptococcus pneumoniae [13]): 0.5 µg/mL (≈ 1.48 µM) | MIC90 (Streptococcus pneumoniae [13]): 1 µg/mL (≈ 2.96 µM)
